The molecules below were run on Nrf2 (Keap1-NRF2 nuclear translocation) (assay: U2OS translocation assay (PathHunter U2OS Keap1-NRF2 Nuclear Translocation Cell Line)). Details: Homo sapiens, U2OS, 3 h, read-out: CELLULAR U2OS EC50 (nM), U2OS Keap1-NRF2 nuclear translocation cells, 3 h incubation, luminescence, normalized between 1% DMSO and 10 μM andrographolide.
Assay type: cell-based
Experimental: EXAMPLE 84: U2OS—TRANSLOCATION ASSAY
U2OS cell have been stably transduced using MMLV-derived retroviral vector, to overexpress Nrf2-Enzyme Donor fusion protein, and Acceptor Enzyme in the nucleus (PathHunter® U2OS Keap1-NRF2 Nuclear Translocation Cell Line, Ref.93-0821C3, DiscoverX).
PathHunter U2OS cells were grown in Minimum Essential Medium (MEM) (Ref.30-2003, ATCC), 10% FBS (Ref.P30-193306, PanBiotech), 500 μg/ml Geneticine, 250 μg/ml hygromycine, 0.25 μg/ml puromycine (10131-027, 10687-010 and Ref.A1113802 respectively, Life Technologies).
The night before experiment, cells were harvested using Tryple Xpress (Ref.126905, Bibco) for 5 min at 37° C., resuspended in Opti-MEM™ (Ref.31985-047, Gibco), 1% FBS (Ref.P30-193306, PanBiotech) and then plated into 384 wells plates (Ref.6007680, Perkin Elmer) at the density of 7 500 cells/well in 20 μl. Cell are stored over night at 37° C., 5% CO2 until used. Compounds in 100% DMSO (0.315 μl/well) were resuspended in 20 μl MEM, 1% FBS, 3.4% DMSO. Compounds and andrographolide (10 μM final concentration; Ref.365645-500MG, Aldrich)) as positive control, were dispensed on cell, 5 μl /well, and then incubated for 3 h at 37° C. and 5% CO2. After incubation, Path hunter reagents were dispensed on cells (12 μl /well, Ref.93-0001, DiscoverX) and incubated for 60 min at room temperature in the dark.
Then, luminescence signal was measured using multimodal reader (Pherastar, BMG Labtech). Data were normalized between 1% DMSO (basal signal) and 10 μM andrographolide (positive signal) and analyzed using Activity Base software.
For `Cc1ccc2cc1CN1Cc3cc(ccc3OS1(=O)=O)CNC(=O)CCn1nnc3c(C)c(ccc31)C2CC(=O)O` (racemic) [Example 69, [4,31-Dimethyl-19,27,27-trioxo-26-oxa-27λ^6-thia-1,14,15,16,20-pentaazahexacyclo[20.5.3.1^3,70.1^9,130.0^12,160.0^25,29]dotriaconta-3(32),4,6,9(31),10,12,14,22,24,29-decaen-8-yl]acetic acid], the EC50 was > 3160 nM.
Molecule `Cc1ccc2cc1CN1Cc3cc(ccc3OS1(=O)=O)OCCCCn1nnc3c(C)c(cc(-c4ccccc4)c31)[C@@H]2CC(=O)O` (single isomer, unassigned) [Example 49] has an EC50 of 1620 nM.

Same assay, conditions: read-out: CELLULAR U2OS EC50; U2OS Keap1-NRF2 nuclear translocation cells, 3 h incubation, luminescence, normalized between 1% DMSO and 10 μM andrographolide
`COc1cc2cc(c1C)CN1Cc3cc(ccc3OS1(=O)=O)OCCCCn1nnc3c(C)c(ccc31)C2CC(=O)O` (single isomer, unassigned) [Example 30a, [5-Methoxy-4,31-dimethyl-27,27-dioxo-21,26-dioxa-27λ^6-thia-1,14,15,16-tetraazahexacyclo[20.5.3.1^3,70.1^9,130.0^12,160.0^25,29]dotriaconta-3(32),4,6,9(31),10,12,14,22,24,29-decaen-8-yl]acetic acid] gave an EC50 of 555 nM.
In the case of `COc1cc2cc(c1C)CN1Cc3cc(ccc3OS1(=O)=O)OCCCCn1nnc3c(C)c(ccc31)C2CC(=O)O` (single isomer, unassigned) [Example 30b, [5-Methoxy-4,31-dimethyl-27,27-dioxo-21,26-dioxa-27λ^6-thia-1,14,15,16-tetraazahexacyclo[20.5.3.1^3,70.1^9,130.0^12,160.0^25,29]dotriaconta-3(32),4,6,9(31),10,12,14,22,24,29-decaen-8-yl]acetic acid], the EC50 is reported as 2360 nM.
In the case of `Cc1ccc2cc1CN1Cc3cc(ccc3OS1(=O)=O)OCC1CCN(CC1)CCn1nnc3c(C)c(ccc31)C2CC(=O)O` (single isomer, unassigned) [Example 60a, [4,36-Dimethyl-30,30-dioxo-24,29-dioxa-30λ^6-thia-1,14,15,16,19-pentaazaheptacyclo[23.5.3.2^19,220.1^3,70.1^9,130.0^12,160.0^28,32]heptatriaconta-3(37),4,6,9(36),10,12,14,25,27,32-decaen-8-yl]acetic acid], the EC50 is reported as 265 nM.
For `Cc1ccc2cc1CN1Cc3cc(ccc3OS1(=O)=O)OCC1CCN(CC1)CCn1nnc3c(C)c(ccc31)C2CC(=O)O` (single isomer, unassigned) [Example 60b, [4,36-Dimethyl-30,30-dioxo-24,29-dioxa-30λ^6-thia-1,14,15,16,19-pentaazaheptacyclo[23.5.3.2^19,220.1^3,70.1^9,130.0^12,160.0^28,32]heptatriaconta-3(37),4,6,9(36),10,12,14,25,27,32-decaen-8-yl]acetic acid], the EC50 was > 3160 nM.
For `Cc1ccc2cc1CN1Cc3cc(ccc3OS1(=O)=O)OCc1ccccc1/C=C/n1nnc3c(C)c(ccc31)C2CC(=O)O` (single isomer, unassigned) [Example 61a, [(17E)-4,36-dimethyl-32,32-dioxo-26,31-dioxa-32λ^6-thia-1,14,15,16-tetraazaheptacyclo[25.5.3.1^3,70.1^9,130.0^12,160.0^19,240.0^30,34]heptatriaconta-3(37),4,6,9(36),10,12,14,17,19,21,23,27,29,34-tetradecaen-8-yl]acetic acid], the EC50 was 717 nM.
`Cc1ccc2cc1CN1Cc3cc(ccc3OS1(=O)=O)OCc1ccccc1/C=C/n1nnc3c(C)c(ccc31)C2CC(=O)O` (single isomer, unassigned) [Example 61b, [(17E)-4,36-dimethyl-32,32-dioxo-26,31-dioxa-32λ^6-thia-1,14,15,16-tetraazaheptacyclo[25.5.3.1^3,70.1^9,130.0^12,160.0^19,240.0^30,34]heptatriaconta-3(37),4,6,9(36),10,12,14,17,19,21,23,27,29,34-tetradecaen-8-yl]acetic acid] was tested, and the EC50 was > 3160 nM.
In the case of `Cc1ccc2cc1CN1Cc3cc(ccc3OS1(=O)=O)OCc1ccccc1SCCCn1nnc3c(C)c(ccc31)C2CC(=O)O` (single isomer, unassigned) [Example 67a, [4,38-Dimethyl-34,34-dioxo-28,33-dioxa-20,34λ^6-dithia-1,14,15,16-tetraazaheptacyclo[27.5.3.1^3,70.1^9,130.0^12,160.0^21,260.0^32,36]nonatriaconta-3(39),4,6,9(38),10,12,14,21,23,25,29,31,36-tridecaen-8-yl]acetic acid], the EC50 is reported as 554 nM.
With `Cc1ccc2cc1CN1Cc3cc(ccc3OS1(=O)=O)OCc1ccccc1SCCCn1nnc3c(C)c(ccc31)C2CC(=O)O` (single isomer, unassigned) [Example 67b, [4,38-Dimethyl-34,34-dioxo-28,33-dioxa-20,34λ^6-dithia-1,14,15,16-tetraazaheptacyclo[27.5.3.1^3,70.1^9,130.0^12,160.0^21,260.0^32,36]nonatriaconta-3(39),4,6,9(38),10,12,14,21,23,25,29,31,36-tridecaen-8-yl]acetic acid] the EC50 was > 3160 nM.
`Cc1ccc2cc1CN1Cc3cc(ccc3OS1(=O)=O)Oc1ccccc1NCCn1nnc3c(C)c(ccc31)C2CC(=O)O` (single isomer, unassigned) [Example 70a, [4,36-Dimethyl-32,32-dioxo-26,31-dioxa-32λ^6-thia-1,14,15,16,19-pentaazaheptacyclo[25.5.3.1^3,70.1^9,130.0^12,160.0^20,250.0^30,34]heptatriaconta-3(37),4,6,9(36),10,12,14,20,22,24,27,29,34-tridecaen-8-yl]acetic acid] showed an EC50 of 306 nM.
`Cc1ccc2cc1CN1Cc3cc(ccc3OS1(=O)=O)Oc1ccccc1NCCn1nnc3c(C)c(ccc31)C2CC(=O)O` (single isomer, unassigned) [Example 70b, [4,36-Dimethyl-32,32-dioxo-26,31-dioxa-32λ^6-thia-1,14,15,16,19-pentaazaheptacyclo[25.5.3.1^3,70.1^9,130.0^12,160.0^20,250.0^30,34]heptatriaconta-3(37),4,6,9(36),10,12,14,20,22,24,27,29,34-tridecaen-8-yl]acetic acid] was tested, and the EC50 was > 3160 nM.
`Cc1ccc2cc1CN1Cc3cc(ccc3OS1(=O)=O)OCCCCn1nnc3c(C)c(ccc31)C2C(C)(C)C(=O)O` (single isomer, unassigned) [Example 74a, 2-[4,31-Dimethyl-27,27-dioxo-21,26-dioxa-27λ^6-thia-1,14,15,16-tetraazahexacyclo[20.5.3.1^3,70.1^9,130.0^12,160.0^25,29]dotriaconta-3(32),4,6,9(31),10,12,14,22,24,29-decaen-8-yl]-2-methylpropanoic acid] gave an EC50 of 6.11 nM.
`Cc1ccc2cc1CN1Cc3cc(ccc3OS1(=O)=O)OCCCCn1nnc3c(C)c(ccc31)C2C(C)(C)C(=O)O` (single isomer, unassigned) [Example 74b, 2-[4,31-Dimethyl-27,27-dioxo-21,26-dioxa-27λ^6-thia-1,14,15,16-tetraazahexacyclo[20.5.3.1^3,70.1^9,130.0^12,160.0^25,29]dotriaconta-3(32),4,6,9(31),10,12,14,22,24,29-decaen-8-yl]-2-methylpropanoic acid] gave an EC50 of 756 nM.
With `Cc1ccc2cc1CN1Cc3c(ccc(c3Cl)OCCOCCn3nnc4c(C)c(ccc43)C2CC(=O)O)OS1(=O)=O` (single isomer, unassigned) [Example 76a, [31-Chloro-4,32-dimethyl-28,28-dioxo-19,22,27-trioxa-28λ^6-thia-1,14,15,16-tetraazahexacyclo[21.5.3.1^3,70.1^9,130.0^12,160.0^26,30]tritriaconta-3(33),4,6,9(32),10,12,14,23,25,30-decaen-8-yl]acetic acid] the EC50 was 7.5 nM.
For `Cc1ccc2cc1CN1Cc3c(ccc(c3Cl)OCCOCCn3nnc4c(C)c(ccc43)C2CC(=O)O)OS1(=O)=O` (single isomer, unassigned) [Example 76b, [31-Chloro-4,32-dimethyl-28,28-dioxo-19,22,27-trioxa-28λ^6-thia-1,14,15,16-tetraazahexacyclo[21.5.3.1^3,70.1^9,130.0^12,160.0^26,30]tritriaconta-3(33),4,6,9(32),10,12,14,23,25,30-decaen-8-yl]acetic acid], the EC50 was 26.2 nM.
Molecule `Cc1ccc2cc1CN1Cc3cc(ccc3OS1(=O)=O)OCCOCCn1nnc3c(C)c(ccc31)C2CC(=O)O` (single isomer, unassigned) [Example 78a, [4,32-Dimethyl-28,28-dioxo-19,22,27-trioxa-28λ^6-thia-1,14,15,16-tetraazahexacyclo[21.5.3.1^3,70.1^9,130.0^12,160.0^26,30]tritriaconta-3(33),4,6,9(32),10,12,14,23,25,30-decaen-8-yl]acetic acid] has an EC50 of 69 nM.

Reference: US12643912B2, “Macrocyclic compounds, a process for their preparation and pharmaceutical compositions containing them” (LES LABORATOIRES SERVIER, priority 2020, dated 2026)
